By EC50 is commonly meant the midpoint of the concentration-response curve.

Each structure is given as a SMILES string.

This test deals with T1, human TLX (Homo sapiens, UniProt Q9Y466).
T1 construct: expressed in transfected cells; host or cells: HEK293T
Description: Gal4 hybrid reporter gene assay (TLX modulation). Type of test: cell-based. Details: key to relative reporter activity: fraction of DMSO control (DMSO = 1). The following applies: for relative reporter activity: DMSO control = 1; for EC50: Gal4-TLX hybrid reporter in HEK293T cells, 16 h incubation. The method, then:
In the Tables, the TLX relative reporter activity is expressed as EC50 (in µM) for each listed compound. "EC50" refers to a measure of the concentration of a compound which induces a biological response halfway between the baseline and maximum after a specified exposure time. […] The EC50 is measured via a hybrid reporter gene assay, employing the transfection of a reporter (firefly luciferase with Gal4 response element), a control gene (Renilla luciferase), a transcriptional activator (Gal4-VP16) and a hybrid receptor consisting of the TLX ligand binding domain (LBD) and the Gal4 DNA binding domain (DBD).
Hybrid reporter gene assays. […] After 24 h, medium was changed to Opti-MEM without supplements and cells were transiently transfected using Lipofectamine LTX reagent (Invitrogen, Carlsbad, CA, USA) according to the manufacturer's protocol. Five hours after transfection, cells were incubated with the test compounds in Opti-MEM supplemented with penicillin (100 U/mL), streptomycin (100 µg/mL) and 0.1% DMSO for 16 h before luciferase activity was measured using the Dual-Glo Luciferase Assay System (Promega) according to the manufacturer's protocol on a Tecan Spark luminometer (Tecan Deutschland GmbH, Crailsheim, Germany). Firefly luminescence was divided by Renilla luminescence and multiplied by 1000 resulting in relative light units (RLU) to normalize for transfection efficiency and cell growth. Fold activation was obtained by dividing the mean RLU of test compound by the mean RLU of the untreated control. All samples were tested in at least three biologically independent experiments in duplicates. For dose-response curve fitting and calculation of EC50 values, the equation "[Agonist] vs. response -- Variable slope (four parameters)" was used in GraphPad Prism (version 7.00, GraphPad Software, La Jolla, CA, USA).
Background: In a reporter assay the amount or activity of a reporter protein is the signal.

[1] abbreviates: minimal remaining or maximum reporter activity after treatment, in brackets below the EC50, <1 agonism, >1 inverse agonism.

T1 sequence (Q9Y466 155-383 limits assumed): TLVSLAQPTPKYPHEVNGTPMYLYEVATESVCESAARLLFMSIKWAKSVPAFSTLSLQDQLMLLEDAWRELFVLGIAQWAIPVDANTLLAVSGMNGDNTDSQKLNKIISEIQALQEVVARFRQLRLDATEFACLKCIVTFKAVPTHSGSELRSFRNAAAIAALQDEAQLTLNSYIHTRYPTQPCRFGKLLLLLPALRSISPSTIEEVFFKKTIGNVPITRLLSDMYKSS

As for `Cc1noc(C)c1-c1cc(N)cc(C(F)(F)F)c1` [compound 42, 3-(3,5-dimethylisoxazol-4-yl)-5-(trifluoromethyl)aniline], the relative reporter activity entry (at 10 µM) is listed as “(0.70±0.07 at 10 µM)”.

For `Cc1ccc(-c2cc(N)cc(C(F)(F)F)c2)cc1` [compound 67, 4'-methyl-5-(trifluoromethyl)-[1, 1 '-biphenyl]-3-amine], the relative reporter activity result (at 30 µM) is “inactive at 30 µM”.

In the case of `Nc1cc(-c2ccc3c(c2)CCN3)cc(C(F)(F)F)c1` [compound 96, 3-(indolin-5-yl)-5-(trifluoromethyl)aniline], the EC50 was 2300 ± 700 nM.

`Cc1cc(-c2cc(N)cc(C(F)(F)F)c2)cc(C)n1` [compound 88, 3-(2,6-dimethylpyridin-4-yl)-5-(trifluoromethyl)aniline] gave an EC50 of 1600 ± 800 nM.

For `Nc1cc(-n2cnc3ccccc32)cc(C(F)(F)F)c1` [compound 35, 3-(1H-benzo[d]imidazol-1-yl)-5-(trifluoromethyl)aniline], a half-maximal effect (EC50) was put at 2400 ± 900 nM.

Regarding `Cc1cc(-c2cccc(N)c2)ccn1` [compound 104, 3-(2-methylpyridin-4-yl)aniline], for the setting “at 50 µM”, the relative reporter activity result was “(0.73±0.06 at 50 µM)”.

On to `Cc1cc(-c2cc(N)c3cc[nH]c3c2)ccn1` [compound 116, 6-(2-methylpyridin-4-yl)-1H-indol-4-amine], for which the relative reporter activity entry (at 50 µM) was “inactive at 50 µM”.

`CC(=O)c1cc(-c2cc(NC(=O)c3ccnc4ccccc34)cc(C(F)(F)F)c2)cs1` [compound 61, N-(3-(5-acetylthiophen-3-yl)-5-(trifluoromethyl)phenyl)quinoline-4-carboxamide] yielded a 50% effective concentration (EC50) of 1100 ± 300 nM. Under setting [1], this compound came in with a relative reporter activity of 0.17±0.08.

On to `Cn1ccc2cc(-c3cc(N)cc(C(F)(F)F)c3)ccc21` [compound 90, 3-(1-methyl-1H-indol-5-yl)-5-(trifluoromethyl)aniline], for which the EC50 is 1100 ± 100 nM.

Turning to `Cc1cn(-c2cc(NC(=O)c3ccc(C(F)(F)F)cc3)cc(C(F)(F)F)c2)cn1` [compound 19, N-(3-(4-mefhyl-1H-imidazol-1-yl)-5-(trifluoromefhyl)phenyl)-4-(frifluoromethyl)-benzamide], the response was half-maximal at 3300 ± 1200 nM (EC50). Also, the relative reporter activity under setting [1] came out at 0.59±0.10.

With `CCOc1cc(C(=O)Nc2cc(-n3cnc(C)c3)cc(C(F)(F)F)c2)c2ccccc2n1` [compound 8, 2-ethoxy-N-(3-(4-methyl-1H-imidazol-1-yl)-5-(trifluoromethyl)phenyl)quinoline-4-carboxamide], it took 1100 ± 300 nM to reach a half-maximal effect (EC50). The relative reporter activity under setting [1] is 0.57±0.04.

`Cc1cc(-c2cc(NC(=O)C3CCC3)cc(C(F)(F)F)c2)ccn1` [compound 82, N-(3-(2-methylpyridin-4-yl)-5-(trifluoromethyl)phenyl)cyclobutanecarboxamide] had a half-maximal effective concentration (EC50) of 600 ± 200 nM. This compound also registered a relative reporter activity under setting [1] of 0.17±0.09.

For `Cc1cn(-c2cccc(N)c2)cn1` [compound 101, 3-(4-methyl-1H-imidazol-1-yl)aniline], the relative reporter activity result (at 30 µM) is “inactive at 30 µM”.

On to `Cc1cnn(-c2cc(N)cc(C(F)(F)F)c2)c1` [compound 37, 3-(4-methyl-1H-pyrazol-1-yl)-5-(trifluoromethyl)aniline], for which the relative reporter activity entry (at 100 µM) is “(0.48±0.09 at 100 µM)”.

On to `Cc1cc(-c2cc(N)cc(C(F)(F)F)c2)cnc1C` [compound 69, 3-(5,6-dimethylpyridin-3-yl)-5-(trifluoromethyl)aniline], for which the concentration for a half-maximal effect (EC50) was determined as 6300 ± 2100 nM.

`CC(=O)c1ccc(-c2ccnc(C)c2)cc1N` [compound 112, 1-(2-amino-4-(2-methylpyridin-4-yl)phenyl)ethan-1-one]: a half-maximal response (EC50) required 18000 ± 10000 nM. Under setting [1], this compound yielded a relative reporter activity of 0.58±0.09.

Turning to `Cc1cc(-c2cc(N)cc(C(F)(F)F)c2)n[nH]1` [compound 43, 3-(5-methyl-1H-pyrazol-3-yl)-5-(trifluoromethyl)aniline], where the note is “at 100 µM”, the relative reporter activity entry is reported as “(0.29±0.05 at 100 µM)”.

`Cc1cc(-c2cc(N)c3cn[nH]c3c2)ccn1` [compound 117] gave a half-maximal effective concentration (EC50) of 7900 ± 1500 nM. The same compound returned a relative reporter activity under setting [1] of 0.31±0.03.

On to `Cc1nc(-c2cc(N)cc(C(F)(F)F)c2)cs1` [compound 64, 3-(2-methylthiazol-4-yl)-5-(trifluoromethyl)aniline], for which, for the setting “at 120 µM”, the relative reporter activity result is “(0.67±0.06 at 120 µM)”.

On to `Cc1cn(-c2cc(NC(=O)c3ccnc(Cl)c3)cc(C(F)(F)F)c2)cn1` [compound 12, 2-chloro-N-(3-(4-methyl-1H-imidazol-1-yl)-5-(trifluoromethyl)phenyl)-isonicotinamide], for which, where the note is “at 10 µM”, the relative reporter activity entry is listed as “(0.71±0.05 at 10 µM)”.

With `Cc1cc(-c2cc(NC(=O)c3ccc4ccccc4c3)cc(C(F)(F)F)c2)ccn1` [compound 80, N-(3-(2-methylpyridin-4-yl)-5-(trifluoromethyl)phenyl)-2-naphthamide], the 50% effective concentration (EC50) is 970 ± 220 nM. Also, under setting [1], the relative reporter activity was determined as 0.29±0.06.

Regarding `COc1ccc(C(=O)Nc2cc(-n3cnc(C)c3)cc(C(F)(F)F)c2)cc1` [compound 17, 4-methoxy-N-(3-(4-methyl-1H-imidazol-1-yl)-5-(trifluoromethyl)phenyl)benzamide], it took 5200 ± 400 nM to reach a half-maximal effect (EC50). The relative reporter activity under setting [1] is given as 0.42±0.03.

Where the note is “at 50 µM”, `Cc1cc(C)c(-c2cc(N)cc(C(F)(F)F)c2)s1` [compound 56, 3-(3,5-dimethylthiophen-2-yl)-5-(trifluoromethyl)aniline] displayed a relative reporter activity of 3.4±0.3.

Compound `CC(=O)Nc1cc(-c2ccnc(C)c2)cc(C(F)(F)F)c1` [compound 79, N-(3-(2-methylpyridin-4-yl)-5-(trifluoromethyl)phenyl)acetamide] came in with an EC50 of 2600 ± 400 nM. Under setting [1], this compound showed a relative reporter activity of 0.18±0.06.

Turning to `Cc1c(-c2cc(N)cc(C(F)(F)F)c2)cnn1C` [compound 49, 3-(1,5-dimethyl-1H-pyrazol-4-yl)-5-(trifluoromethyl)aniline], the midpoint of the response, the EC50, lay at 3900 ± 1600 nM. The compound further registered a relative reporter activity under setting [1] of 0.49±0.11.

Regarding `Cc1cc(-c2cc(N)cc(C(F)(F)F)c2)ccn1` [compound 74, 3-(2-methylpyridin-4-yl)-5-(trifluoromethyl)aniline], the concentration for a half-maximal effect (EC50) turned out to be 6600 ± 2100 nM.

Values taken from patent publication EP4650002A1 (Ludwig-Maximilians-Universität, priority 2024, dated 2025).
